Data published in patent US6525001B1, “Substituted pyrimidine and pyridine herbicides” (Mid-American Commercialization Corporation, priority 1997, dated 2003).

Assays:
Test in all cases: Test B pre-/postemergence
Format in all cases: in vivo
Parameters in all cases: key: 0 is no effect; 10 is complete control
[1] = test system: bedstraw (Galium aparine)
Procedure, shortened: (§1)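 Compounds in a surfactant-containing, non-phytotoxic solvent blend are applied to freshly planted seed (preemergence) and, concurrently, to seedlings of 2 to 18 cm at 1–4 leaves (postemergence). Plants stay in the greenhouse twelve to sixteen days and are then scored visually from 0 (no effect) to 10 (complete control).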

[2] = test system: pigweed (Amaranthus retroflexus)
Procedure, shortened: as §1

[3] = test system: giant foxtail (Setaria faberii)
Procedure, shortened: as §1

[4] = test system: sugar beet (Beta vulgaris)
Procedure, shortened: as §1

[5] = test system: velvetleaf (Abutilon theophrasti)
Procedure, shortened: as §1

[6] = test system: wheat (Triticum aestivum)
Procedure, shortened: as §1

[7] = test system: momingglory (Ipomoea hederacea)
Procedure, shortened: as §1

[8] = test system: purple nutsedge (Cyperus rotundus)
Procedure, shortened: as §1

[9] = test system: corn (Zea mays)
Procedure, shortened: as §1

[10] = test system: wild oat (Avena fatua)
Procedure, shortened: as §1

[11] = test system: rape (Brassica napus)
Procedure, shortened: as §1

[12] = test system: cocklebur (Xanthium strumarium)
Procedure, shortened: as §1

[13] = test system: crabgrass (Digitaria sanguinalis)
Procedure, shortened: as §1

[14] = test system: soybean (Glycine max)
Procedure, shortened: as §1

Cc1cnc(-c2ccc(C(F)(F)F)cc2)nc1Cn1ccc(C(F)(F)F)n1 [compound 9]
0: Plant response rating, Nutsedge ([8]; Rate 62 g/ha, Postemergence) | Nutsedge plant response rating ([8]; Rate 62 g/ha, Preemergence) | Nutsedge plant response rating ([8]; Rate 125 g/ha, Preemergence) | Plant response rating, Nutsedge ([8]; Rate 250 g/ha, Preemergence) | Plant response rating, Nutsedge ([8]; Rate 500 g/ha, Preemergence) | Corn plant response rating ([9]; Rate 62 g/ha, Preemergence) | Cocklebur plant response rating ([12]; Rate 62 g/ha, Preemergence)
5: Plant response rating, Giant foxtail ([3]; Rate 125 g/ha, Postemergence) | Plant response rating, Wheat ([6]; Rate 250 g/ha, Preemergence) | Plant response rating, Corn ([9]; Rate 250 g/ha, Postemergence) | Plant response rating, Corn ([9]; Rate 500 g/ha, Postemergence) | Wild oats plant response rating ([10]; Rate 62 g/ha, Preemergence)
3: Plant response rating, Wheat ([6]; Rate 62 g/ha, Postemergence) | Plant response rating, Wheat ([6]; Rate 125 g/ha, Postemergence) | Plant response rating, Nutsedge ([8]; Rate 250 g/ha, Postemergence) | Plant response rating, Nutsedge ([8]; Rate 500 g/ha, Postemergence) | Plant response rating, Corn ([9]; Rate 62 g/ha, Postemergence) | Plant response rating, Corn ([9]; Rate 250 g/ha, Preemergence) | Plant response rating, Wild oats ([10]; Rate 62 g/ha, Postemergence)
4: Bedstraw plant response rating ([1]; Rate 62 g/ha, Preemergence) | Plant response rating, Giant foxtail ([3]; Rate 62 g/ha, Postemergence) | Plant response rating, Wheat ([6]; Rate 250 g/ha, Postemergence) | Plant response rating, Corn ([9]; Rate 125 g/ha, Postemergence) | Plant response rating, Corn ([9]; Rate 500 g/ha, Preemergence) | Plant response rating, Wild oats ([10]; Rate 125 g/ha, Postemergence) | Plant response rating, Soybean ([14]; Rate 500 g/ha, Preemergence)
8: Velvetleaf plant response rating ([5]; Rate 125 g/ha, Preemergence) | Morningglory plant response rating ([7]; Rate 62 g/ha, Preemergence) | Wild oats plant response rating ([10]; Rate 125 g/ha, Preemergence) | Plant response rating, Wild oats ([10]; Rate 500 g/ha, Postemergence) | Plant response rating, Soybean ([14]; Rate 62 g/ha, Postemergence)
1: Wheat plant response rating ([6]; Rate 62 g/ha, Preemergence) | Plant response rating, Nutsedge ([8]; Rate 125 g/ha, Postemergence) | Corn plant response rating ([9]; Rate 125 g/ha, Preemergence) | Soybean plant response rating ([14]; Rate 62 g/ha, Preemergence) | Soybean plant response rating ([14]; Rate 125 g/ha, Preemergence)
9: Plant response rating, Bedstraw ([1]; Rate 500 g/ha, Preemergence) | Redroot pigweed plant response rating ([2]; Rate 62 g/ha, Preemergence) | Plant response rating, Giant foxtail ([3]; Rate 250 g/ha, Postemergence) | Plant response rating, Giant foxtail ([3]; Rate 500 g/ha, Postemergence) | Sugarbeets plant response rating ([4]; Rate 62 g/ha, Preemergence) | Plant response rating, Sugarbeets ([4]; Rate 500 g/ha, Postemergence) | Plant response rating, Velvetleaf ([5]; Rate 250 g/ha, Preemergence) | Plant response rating, Velvetleaf ([5]; Rate 500 g/ha, Postemergence) | Plant response rating, Velvetleaf ([5]; Rate 500 g/ha, Preemergence) | Plant response rating, Wild oats ([10]; Rate 250 g/ha, Preemergence) | Plant response rating, Wild oats ([10]; Rate 500 g/ha, Preemergence) | Plant response rating, Rape ([11]; Rate 62 g/ha, Postemergence) | Rape plant response rating ([11]; Rate 62 g/ha, Preemergence) | Rape plant response rating ([11]; Rate 125 g/ha, Preemergence) | Plant response rating, Cocklebur ([12]; Rate 62 g/ha, Postemergence) | Plant response rating, Cocklebur ([12]; Rate 125 g/ha, Postemergence) | Plant response rating, Cocklebur ([12]; Rate 250 g/ha, Preemergence) | Plant response rating, Cocklebur ([12]; Rate 500 g/ha, Postemergence) | Plant response rating, Cocklebur ([12]; Rate 500 g/ha, Preemergence) | Plant response rating, Crabgrass ([13]; Rate 62 g/ha, Postemergence) | Crabgrass plant response rating ([13]; Rate 62 g/ha, Preemergence) | Plant response rating, Crabgrass ([13]; Rate 125 g/ha, Postemergence) | Plant response rating, Soybean ([14]; Rate 125 g/ha, Postemergence) | Plant response rating, Soybean ([14]; Rate 500 g/ha, Postemergence)
6: Plant response rating, Wheat ([6]; Rate 500 g/ha, Postemergence) | Plant response rating, Wheat ([6]; Rate 500 g/ha, Preemergence) | Plant response rating, Wild oats ([10]; Rate 250 g/ha, Postemergence)
7: Bedstraw plant response rating ([1]; Rate 125 g/ha, Preemergence) | Velvetleaf plant response rating ([5]; Rate 62 g/ha, Preemergence)
10: Plant response rating, Bedstraw ([1]; Rate 62 g/ha, Postemergence) | Plant response rating, Bedstraw ([1]; Rate 125 g/ha, Postemergence) | Plant response rating, Bedstraw ([1]; Rate 250 g/ha, Postemergence) | Plant response rating, Bedstraw ([1]; Rate 250 g/ha, Preemergence) | Plant response rating, Bedstraw ([1]; Rate 500 g/ha, Postemergence) | Plant response rating, Redroot pigweed ([2]; Rate 62 g/ha, Postemergence) | Plant response rating, Redroot pigweed ([2]; Rate 125 g/ha, Postemergence) | Redroot pigweed plant response rating ([2]; Rate 125 g/ha, Preemergence) | Plant response rating, Redroot pigweed ([2]; Rate 250 g/ha, Postemergence) | Plant response rating, Redroot pigweed ([2]; Rate 250 g/ha, Preemergence) | Plant response rating, Redroot pigweed ([2]; Rate 500 g/ha, Postemergence) | Plant response rating, Redroot pigweed ([2]; Rate 500 g/ha, Preemergence) | Giant foxtail plant response rating ([3]; Rate 62 g/ha, Preemergence) | Giant foxtail plant response rating ([3]; Rate 125 g/ha, Preemergence) | Plant response rating, Giant foxtail ([3]; Rate 250 g/ha, Preemergence) | Plant response rating, Giant foxtail ([3]; Rate 500 g/ha, Preemergence) | Plant response rating, Sugarbeets ([4]; Rate 62 g/ha, Postemergence) | Plant response rating, Sugarbeets ([4]; Rate 125 g/ha, Postemergence) | Sugarbeets plant response rating ([4]; Rate 125 g/ha, Preemergence) | Plant response rating, Sugarbeets ([4]; Rate 250 g/ha, Postemergence) | Plant response rating, Sugarbeets ([4]; Rate 250 g/ha, Preemergence) | Plant response rating, Sugarbeets ([4]; Rate 500 g/ha, Preemergence) | Plant response rating, Velvetleaf ([5]; Rate 62 g/ha, Postemergence) | Plant response rating, Velvetleaf ([5]; Rate 125 g/ha, Postemergence) | Plant response rating, Velvetleaf ([5]; Rate 250 g/ha, Postemergence) | Plant response rating, Morningglory ([7]; Rate 62 g/ha, Postemergence) | Plant response rating, Morningglory ([7]; Rate 125 g/ha, Postemergence) | Morningglory plant response rating ([7]; Rate 125 g/ha, Preemergence) | Plant response rating, Morningglory ([7]; Rate 250 g/ha, Postemergence) | Plant response rating, Morningglory ([7]; Rate 250 g/ha, Preemergence) | Plant response rating, Morningglory ([7]; Rate 500 g/ha, Postemergence) | Plant response rating, Morningglory ([7]; Rate 500 g/ha, Preemergence) | Plant response rating, Rape ([11]; Rate 125 g/ha, Postemergence) | Plant response rating, Rape ([11]; Rate 250 g/ha, Postemergence) | Plant response rating, Rape ([11]; Rate 250 g/ha, Preemergence) | Plant response rating, Rape ([11]; Rate 500 g/ha, Postemergence) | Plant response rating, Rape ([11]; Rate 500 g/ha, Preemergence) | Plant response rating, Cocklebur ([12]; Rate 250 g/ha, Postemergence) | Crabgrass plant response rating ([13]; Rate 125 g/ha, Preemergence) | Plant response rating, Crabgrass ([13]; Rate 250 g/ha, Postemergence) | Plant response rating, Crabgrass ([13]; Rate 250 g/ha, Preemergence) | Plant response rating, Crabgrass ([13]; Rate 500 g/ha, Postemergence) | Plant response rating, Crabgrass ([13]; Rate 500 g/ha, Preemergence) | Plant response rating, Soybean ([14]; Rate 250 g/ha, Postemergence)
2: Wheat plant response rating ([6]; Rate 125 g/ha, Preemergence) | Cocklebur plant response rating ([12]; Rate 125 g/ha, Preemergence) | Plant response rating, Soybean ([14]; Rate 250 g/ha, Preemergence)
